Laboratory results taken from patent US11179381B2, “Intranasal administration of physiologically active substances” (DUTCH RENEWABLE ENERGY B.V., priority 2017, dated 2021).

What was measured:
[1] = Blood vitamin B12 after intranasal hydroxocobalmin, 500 μg dose (Access Vitamin B12 assay); details: from average increases of Tables 5 and 6 (500 μg dose, 5 wt. % nicotinamide)
[2] = Blood vitamin B12 after intranasal hydroxocobalmin, 75 μg dose (Access Vitamin B12 assay); details: from average increases of Tables 7 and 8 (75 μg dose, 5 wt. % nicotinamide)
[3] = octanol/water partition coefficient; stated without a test; cited from earlier work
[4] = Blood folate after intranasal spray (Access Folate immunoassay); format: in vivo, human; details: from average increases of Tables 3 and 4 (3.5 wt. % nicotinamide)
Method: Briefly, a serum specimen was treated to release folate from endogenous binding proteins. After neutralization of the reaction mixture, folate-binding protein, mouse antifolate-binding protein, folic acid-alkaline phosphatase conjugate, and goat antimouse capture antibody coupled to paramagnetic particles were added to the reaction vessel. Folate in the sample competes with the folic acid-alkaline phosphatase conjugate for binding sites on a limited amount of folate-binding protein. Resulting complexes bind to the solid phase via mouse antifolate binding protein. […] The instrument used is a Beckman Coulter DXI 800.

[5] = Blood erythropoietin after intranasal rh-Erythropoietin (Access EPO immunoassay); format: in vivo, human; details: from average increases of Tables 9 and 10 (5 wt. % nicotinamide)
Method: As a control a composition comprising 400 μg rh-Erythropoietin was used.
An immunoassay (Access erythropoietin (EPO), Beckman Coultier Inc.) was used to quantify the erythropoietin. Briefly, testing was performed on the Beckman Coulter DxI 800 (Beckman Coulter Inc.). […] The light production is directly proportional to the concentration of EPO in the sample. The amount of analyte in the sample was determined from a stored, multi-point calibration curve. (Instruction manual: Beckman Coulter Access EPO, Beckman Coulter Access Immunoassay Systems, Beckman Coulter, Inc, Fullerton Calif. 2009).

Row | Molecule | Increase in absorption relative to control (absence of nicotinamide) [1] | Increase in absorption relative to control (absence of nicotinamide) [2] | log P [3] | Increase in absorption relative to control (absence of nicotinamide) [4] | Increase in absorption relative to control (absence of nicotinamide) [5]
1 | C/C1=C2/[N-][C@H]([C@H](CC(N)=O)[C@@]2(C)CCC(=O)NC[C@@H](C)OP(=O)([O-])O[C@H]2[C@@H](O)[C@@H](n3cnc4cc(C)c(C)cc43)O[C@@H]2CO)[C@]2(C)N=C(/C(C)=C3N=C(/C=C4N=C1[C@@H](CCC(N)=O)C\4(C)C)[C@@H](CCC(N)=O)[C@]\3(C)CC(N)=O)[C@@H](CCC(N)=O)[C@]2(C)CC(N)=O.[Co+3].[OH-] [Hydroxocobalamin, hydroxocobalamin] | 203% | 192% | −0.9 |  | 
2 | Nc1nc2ncc(CNc3ccc(C(=O)N[C@@H](CCC(=O)O)C(=O)O)cc3)nc2c(=O)[nH]1 [Folic acid, folic acid] |  |  | −0.02 | 184% | 
3 | Erythropoietin: rh-Erythropoietin, molecular weight 34000 |  |  | 0 |  | 300%
